Data reported in patent US20050277663A1, “3-Aryl-3-hydroxy-and 3-aryl-3-oxopropionic acid esters as fungicides” (priority 2004, published 2005).

Columns and labels:
[1] = tested on: Alternaria solani on tomato plants; assay: Alternaria greenhouse study on tomato plants; settings: for control of A. solani (in words): 75 ppm rate; for Average Lesion Size: 6 days after infection
Protocol: Tomato plants were inoculated with a conidial suspension (8,000 conidia/ml) of A. solani and maintained in a dew chamber for 24 hours. The plants were subsequently moved to the greenhouse for disease development.

[2] = tested on: Erysiphe graminis on barley plants; assay: Erysiphe greenhouse study on barley plants; settings: for Average Lesion Number: 5 days after infection
[3] = tested on: Botrytis cinerea; assay: Microtiter plate fungicidal screening (agar, spore inoculation); type: cell-based; settings: fungal growth after 3-5 days at 20° C., C.V. class in parentheses, read-out: IC50 B. cinerea
[4] = tested on: Phytophthora infestans; assay: microbe, parasite or virus in culture; type: cell-based; settings: for IC50: Phytophthora infestans, read-out: IC50 P. infestans
[5] = tested on: Stagnospora nodorum; assay: Microtiter plate fungicidal screening (agar, spore inoculation); type: cell-based; settings: fungal growth after 3-5 days at 20° C., C.V. class in parentheses; for IC50: Parastagonospora nodorum, read-out: IC50 S. nodorum
[6] = tested on: Septoria tritici; assay: as above; type: cell-based; settings: fungal growth after 3-5 days at 20° C., C.V. class in parentheses
[7] = tested on: U. maydis; assay: as above; type: cell-based, Ustilago maydis; settings: Mycosarcoma maydis; fungal growth after 3-5 days at 20° C.; C.V. class in parentheses

Compound: CO/C=C(/C(=O)OC)c1ccccc1Oc1cc(Oc2ccccc2C#N)ncn1 [Azoxystrobin, azoxystrobin]
- control of A. solani (in words) [1]: slightly less control
- Average Lesion Size ([1]; 75 ppm): A (A = 0-10)
- control of A. solani ([1]; 300 ppm rate): ~100%
- Average Lesion Size ([1]; 300 ppm): A (A = 0-10)

Compound: N#Cc1c(Cl)c(Cl)c(Cl)c(C#N)c1Cl [Chlorothalonil, chlorothalonil]
- control of E. graminis (in words) ([2]; high rate): marginal level of control
- Average Lesion Number ([2]; inoculated data set, 1250 ppm): B (B = 51-100)
- Average Lesion Number ([2]; inoculated data set, 5000 ppm): D (D = +150)
- Average Lesion Number ([2]; uninoculated data set, 1250 ppm): B (B = 11-20)
- Average Lesion Number ([2]; uninoculated data set, 5000 ppm): C (C = 21-30)
- Average Lesion Size ([1]; 1250 ppm): A (A = 0-10)
- Average Lesion Size ([1]; 5000 ppm): A (A = 0-10)

Compound: O=C(OCc1cccc(C(F)(F)F)c1)C(CSc1nccs1)C(O)c1cccnc1 (stereo not drawn) [Compound 5, 3-(Trifluoromethyl)phenylmethyl β-hydroxy-α-(2-thiazolylthiomethyl)-3-pyridinepropanoate]
- IC50 [3]: > 25 µM
- IC50 [4]: > 25 µM
- IC50 [5]: < 5 µM
- IC50 S. tritici [6]: A (d)
- IC50 [7]: > 25 µM

Compound: O=C(OCc1cccc(C(F)(F)F)c1)[C@H](c1ccccc1)[C@@H](O)c1cccnc1 [Compound 15, 3-(Trifluoromethyl)phenylmethyl syn-β-hydroxy-α-phenyl-3-pyridinepropanoate]
- IC50 [4]: > 25 µM
- IC50 S. nodorum [5]: A (d)
- IC50 S. tritici [6]: A (d)
- IC50 [7]: > 25 µM

Compound: O=C(OCc1ccc(Cl)c(Cl)c1)C(CSc1nc2cccnc2s1)C(O)c1cccnc1 (stereo not drawn) [Compound 16, 3,4-Dichlorophenylmethyl β-hydroxy-α-{2-(thiazolo[5,4-b]pyridine)thiomethyl}-3-pyridinepropanoate]
- IC50 [4]: > 25 µM
- IC50 S. nodorum [5]: A (b)
- IC50 S. tritici [6]: A (c)
- IC50 [7]: > 25 µM

Compound: O=C(OCc1cccc(C(F)(F)F)c1)C(Cc1ccco1)C(O)c1cccnc1 (stereo not drawn) [Compound 20, 3-(Trifluoromethyl)phenylmethyl β-hydroxy-α-2-furylmethyl-3-pyridinepropanoate]
- IC50 [3]: > 25 µM
- IC50 [4]: > 25 µM
- IC50 S. nodorum [5]: A (b)
- IC50 ([6]; Zymoseptoria tritici, read-out: IC50 S. tritici): < 5 µM
- IC50 [7]: > 25 µM

Compound: O=C(OCc1cccc(C(F)(F)F)c1)C(c1ccccc1Cl)C(O)c1cccnc1 (stereo not drawn) [Compound 21, 3-(Trifluoromethyl)phenylmethyl β-hydroxy-α-2-chlorophenyl-3-pyridinepropanoate]
- IC50 [3]: > 25 µM
- IC50 [4]: > 25 µM
- IC50 S. nodorum [5]: A (c)
- IC50 S. tritici [6]: A (c)
- IC50 [7]: > 25 µM
- activity against E. graminis (in words) ([2]; both rates (300 and 75 ppm), both uninoculated and inoculated tests): excellent activity
- Average Lesion Number ([2]; inoculated data set, 75 ppm): A (A = 0-50)
- Average Lesion Number ([2]; inoculated data set, 300 ppm): A (A = 0-50)
- Average Lesion Number ([2]; uninoculated data set, 75 ppm): A (A = 0-10)
- Average Lesion Number ([2]; uninoculated data set, 300 ppm): A (A = 0-10)
- control of A. solani (in words) [1]: no control
- Average Lesion Size ([1]; 75 ppm): D (D = +30)
- Average Lesion Size ([1]; 300 ppm): C (C = 21-30)
- decrease in lesion counts ([1]; high rate (300 ppm), activity was not significant): roughly 50%

Compound: CC(C(=O)Oc1ccc(Cl)c(Cl)c1)C(O)c1cccnc1 (stereo not drawn) [Compound 29, 3,4-Dichlorophenyl β-hydroxy-α-methyl-3-pyridinepropanoate]
- IC50 [3]: > 25 µM
- IC50 P. infestans ([4]; fungal growth after 3-5 days at 20° C., C.V. class in parentheses): D (d)
- IC50 [5]: 16 to 25 µM
- IC50 S. tritici [6]: A (b)
- IC50 [7]: 16 to 25 µM

Compound: CCCC1COC(Cn2cncn2)(c2ccc(Cl)cc2Cl)O1 (centres unmarked) [Propiconazole, propiconazole]
- control of E. graminis ([2]; high (75 ppm) rate): ~100%
- Average Lesion Number ([2]; inoculated data set, 4.7 ppm): A (A = 0-50)
- Average Lesion Number ([2]; inoculated data set, 18.8 ppm): A (A = 0-50)
- Average Lesion Number ([2]; inoculated data set, 75 ppm): A (A = 0-50)
- control of E. graminis (in words) ([2]; lower rates (19 and 5 ppm)): excellent control
- Average Lesion Number ([2]; uninoculated data set, 5 ppm): A (A = 0-10)
- Average Lesion Number ([2]; uninoculated data set, 19 ppm): A (A = 0-10)
- Average Lesion Number ([2]; uninoculated data set, 75 ppm): A (A = 0-10)
